Measured values: patent US20090214529A9, “KINESIN INHIBITORS” (TaiGen Biotechnology Co., Ltd., priority 2007, published 2009)

Each molecule was assayed on tumor cell (assay: Cytotoxicity assay (MTS)). Conditions: 72 h; incubation for three days; read-out: IC50, tumor cell growth inhibition (MTS).
Type: cell-based
Description: The efficacy of a test compound in inhibiting tumor cell growth was analyzed using a MTS assay. The MTS assay is a calorimetric method for the determination of viable cells in proliferation by using a tetrazolium compound (3-(4,5-dimethylthiazol-2-yl)-5-(3-[…])-2-(4-sulfophenyl)-2H-tetrazolium, inner salt; MTS) and an electron-coupling agent (phenazine methosulfate; PMS). The MTS reagent is converted by dehydrogenase enzymes in metabolically active cells into a formazan that is soluble in a tissue culture medium.
In this assay, tumor cell suspensions (30 μl/well) were seeded into 384-well flat-bottomed tissue culture plates at an appropriate density overnight. A fresh medium (3 μl/well) containing varying concentrations of a test compound or vehicle was added to the culture followed by incubation for three days. At the end of the incubation, all plates were processed simultaneously as follows: The culture medium was aspirated, a MTS cell proliferation assay (Promega) solution (30 μl/well) was added, and the plates were incubated at 37° C. for about 2 hours. Absorbance (a parameter proportional to the cell mass) was measured at 490 nm using a Multiskan (Thermo Electron Corporation, Waltham, Mass.). Inhibition effects were expressed as corrected T/C values for each test compound according to the following equation:
T/C=(T−Blank)/(C−Blank)×100(%),
where T is the mean absorbance of the treated cells, C is the mean absorbance of the controls, and Blank is the mean absorbance of the cell free well.

SMILES | IC50 [µM]
Cc1ccc(C(=O)N(CCCN)C(c2nc3c(oc4ccc(Br)cc43)c(=O)n2Cc2ccccc2)C(C)C)cc1 (stereo not shown) [Compound 38] | < 30
Cc1ccc(C(=O)N(CCCN)C(c2nc3c(oc4ccc(C(F)(F)F)cc43)c(=O)n2Cc2ccccc2)C(C)C)cc1 (stereo not shown) [Compound 30] | < 30
Cc1ccc(C(=O)N(CCCN)C(c2nc3c([nH]c4ccc(Br)cc43)c(=O)n2Cc2ccccc2)C(C)C)cc1 (stereo not shown) [Compound 157] | < 30
Cc1ccc(C(=O)N(CCN)C(c2nc3c(oc4cc(Cl)ccc43)c(=O)n2Cc2ccccc2)C(C)C)cc1 (stereo not shown) [Compound 107] | < 30
Cc1ccc(C(=O)N(CCN)[C@@H](c2nc3c(oc4ccc(F)cc43)c(=O)n2Cc2cccc(F)c2)C(C)C)cc1F [Compound 188] | < 30
Cc1ccc(C(=O)N(CCN)[C@@H](c2nc3c(oc4ccc(F)cc43)c(=O)n2Cc2cc(C)cs2)C2CC2)cc1 [Compound 222] | < 30
Cc1ccc(C(=O)N(CCN)C(c2nc3c(oc4ccc(Cl)cc43)c(=O)n2Cc2ccsc2)C(C)C)cc1 (stereo not shown) [Compound 77] | < 30
CCCC(c1nc2c(oc3ccccc32)c(=O)n1Cc1ccccc1)N(CC(O)CN)C(=O)c1ccc(C)cc1 (stereo not shown) [Compound 58] | < 30
Cc1ccc(C(=O)N(CCCN)C(c2nc3c(oc4ccc(F)cc43)c(=O)n2Cc2ccc(Cl)s2)C(C)C)cc1 (stereo not shown) [Compound 71] | < 30
Cc1ccc(C(=O)N(CCN)C(c2nc3c(oc4ccc(Cl)cc43)c(=O)n2Cc2ccc(C#N)s2)C(C)C)cc1 (stereo not shown) [Compound 48] | < 30
CCC(c1nc2c(oc3ccccc32)c(=O)n1Cc1ccccc1)N(CCCCN)C(=O)c1ccc(C)cc1 (stereo not shown) [Compound 22] | < 30
Cc1ccc(C(=O)N(CCCN)C(c2nc3cc4ccccc4cc3c(=O)n2Cc2ccccc2)C(C)C)cc1 (stereo not shown) [Compound 3] | < 30
Cc1ccc(C(=O)N(CCCN)C(c2nc3n(c(=O)c2Cc2ccccc2)Cc2ccccc2-3)C(C)C)c(F)c1F (stereo not shown) [Compound 154] | < 30
CCN(CC)C(=O)c1ccc(Cn2c(C(C(C)C)N(CCN)C(=O)c3ccc(C)cc3)nc3c(oc4ccc(F)cc43)c2=O)s1 (stereo not shown) [Compound 117] | < 30
Cc1ccc(C(=O)N(CCN)C(c2nc3c(oc4ccc(F)cc43)c(=O)n2Cc2ccc(C(=O)N(C)C)s2)C(C)C)cc1 (stereo not shown) [Compound 115] | < 30
Cc1ccc(C(=O)N(CCCN)C(c2nc3c(Br)c4ccccc4cc3c(=O)n2Cc2ccccc2)C(C)C)cc1 (stereo not shown) [Compound 4] | < 30
Cc1ccc(C(=O)N(CCCN)C(c2nc3c(oc4ccc(F)cc43)c(=O)n2Cc2ccc(C(F)(F)F)o2)C(C)C)cc1 (stereo not shown) [Compound 87] | < 30
Cc1ccc(C(=O)N(CCN)[C@@H](c2nc3c(oc4ccc(F)cc43)c(=O)n2Cc2cc(Br)co2)C(C)C)cc1F [Compound 218] | < 30
Cc1ccc(C(=O)N(CCN)C(c2nc3c(oc4ccc(Cl)cc43)c(=O)n2Cc2ccc(Cl)o2)C(C)C)cc1 (stereo not shown) [Compound 100] | < 30
Cc1ccc(C(=O)N(CCN)C(c2nc3c(oc4ccc(F)cc43)c(=O)n2Cc2ccc(C(N)=O)o2)C(C)C)cc1 (stereo not shown) [Compound 113] | < 30
Cc1ccc(C(=O)N(CCCN)C(c2nc3c(sc4ccc(F)cc43)c(=O)n2Cc2ccccc2)C(C)C)cc1F (stereo not shown) [Compound 137] | < 30

SMILES | IC50 [µM]
Cc1ccc(C(=O)N(CCCN)C(c2nc3c([nH]c4ccccc43)c(=O)n2Cc2ccccc2)C(C)C)cc1 (stereo not shown) [Compound 158] | < 30
Cc1ccc(C(=O)N(CCN)[C@@H](c2nc3c(oc4ccc(F)cc43)c(=O)n2Cc2ccco2)C(C)C)cc1 [Compound 185] | < 30
Cc1ccc(C(=O)N(CCN)C(c2nc3c(oc4ccc(F)cc43)c(=O)n2Cc2cc(Br)co2)C(C)C)cc1 (stereo not shown) [Compound 92] | < 30
Cc1ccc(C(=O)N(CCCN)C(c2nc3c(oc4ccc(Cl)cc43)c(=O)n2Cc2ccc(Cl)s2)C(C)C)cc1 (stereo not shown) [Compound 45] | < 30
Cc1ccc(C(=O)N(CCN)[C@@H](c2nc3c(oc4ccc(F)cc43)c(=O)n2Cc2ccsc2)C(C)C)cc1F [Compound 195] | < 30
Cc1ccc(C(=O)N(CCCN)C(c2nc3c(oc4ccc(Cl)cc43)c(=O)n2Cc2ccsc2)C(C)C)cc1 (stereo not shown) [Compound 78] | < 30
Cc1ccc(C(=O)N(CCN)[C@@H](c2nc3c(oc4ccc(F)cc43)c(=O)n2Cc2cc(C)cs2)C(C)C)cc1 [Compound 179] | < 30
Cc1ccc(C(=O)N(CCN)C(c2nc3c(oc4ccc(F)cc43)c(=O)n2Cc2ccc(C(=O)NCC(F)F)s2)C(C)C)cc1 (stereo not shown) [Compound 120] | < 30
CCC(c1nc2nc3ccccc3cc2c(=O)n1Cc1ccccc1)N(CCCN)C(=O)c1ccc(C)cc1 (stereo not shown) [Compound 11] | < 30
Cc1ccc(C(=O)N(CCN)C(c2nc3c(oc4ccc(Cl)cc43)c(=O)n2Cc2ccccc2)C(C)C)cn1 (stereo not shown) [Compound 56] | < 30
Cc1ccc(C(=O)N(CCCN)C(c2nc3c(oc4ccc(F)cc43)c(=O)n2Cc2cc(C)cs2)C(C)C)cc1 (stereo not shown) [Compound 85] | < 30
Cc1ccc(C(=O)N(CCN)[C@@H](c2nc3c(oc4ccc(F)cc43)c(=O)n2Cc2cc(C#N)cs2)C(C)C)cc1 [Compound 178] | < 30
CC(C)C(c1nc2c(oc3ccc(F)cc32)c(=O)n1Cc1ccc(Cl)o1)N(CCN)C(=O)c1ccc(Br)cc1 (stereo not shown) [Compound 170] | < 30
CC(C)[C@H](c1nc2c(oc3ccc(F)cc32)c(=O)n1Cc1ccc(Cl)o1)N(CCN)C(=O)c1ccc(Br)cc1 [Compound 204] | < 30
Cc1ccc(C(=O)N(CCN)C(c2nc3c(oc4ccc(F)cc43)c(=O)n2Cc2cc(Br)cs2)C(C)C)cc1 (stereo not shown) [Compound 69] | < 30
CC[C@@H](C)[C@H](c1nc2c(oc3ccc(F)cc32)c(=O)n1Cc1ccc(Br)o1)N(CCN)C(=O)c1ccc(C)cc1 [Compound 220] | < 30
Cc1ccc(C(=O)N(CCN)[C@@H](c2nc3c(oc4ccc(F)cc43)c(=O)n2Cc2cccs2)C(C)C)cc1 [Compound 199] | < 30
Cc1ccc(C(=O)N(CCCN)C(c2nc3c(oc4ccccc43)c(=O)n2Cc2ccccc2)C(C)C)cc1 (stereo not shown) [Compound 13] | < 30
Cc1ccc(C(=O)N(CCN)[C@@H](c2nc3c(oc4ccc(F)cc43)c(=O)n2Cc2ccccc2)C(C)C)c(F)c1F [Compound 206] | < 30
Cc1ccc(C(=O)N(CCN)[C@@H](c2nc3c(oc4ccc(F)cc43)c(=O)n2Cc2ccc(Br)s2)C(C)C)cc1 [Compound 183] | < 30
Cc1ccc(C(=O)N(CCCN)C(c2nc3c(sc4ccccc43)c(=O)n2Cc2ccccc2)C(C)C)cc1 (stereo not shown) [Compound 135] | < 30

SMILES | IC50 [µM]
Cc1ccc(C(=O)N(CCCN)C(c2nc3c(oc4ccc(Cl)cc43)c(=O)n2Cc2ccccc2)C(C)C)cc1 (stereo not shown) [Compound 35] | < 30
Cc1ccc(C(=O)N(CCC2(N)CCC2)C(c2nc3n(c(=O)c2Cc2ccccc2)Cc2ccccc2-3)C(C)C)cc1 (stereo not shown) [Compound 153] | < 30
CC(C)C(c1nc2c(sc3ccccc32)c(=O)n1Cc1ccc(Cl)s1)N(CCCN)C(=O)c1ccc(Br)cc1 (stereo not shown) [Compound 141] | < 30
Cc1ccc(C(=O)N(CCN)C(c2nc3c(oc4cccc(F)c43)c(=O)n2Cc2ccccc2)C(C)C)cc1 (stereo not shown) [Compound 60] | < 30
Cc1ccc(C(=O)N(CCN)C(c2nc3c(oc4ccc(F)cc43)c(=O)n2Cc2ccco2)C(C)C)cc1 (stereo not shown) [Compound 127] | < 30
Cc1ccc(C(=O)N(CCCN)[C@@H](c2nc3c(oc4ccc(F)cc43)c(=O)n2Cc2cc(C)cs2)C(C)C)cc1 [Compound 211] | < 30
Cc1ccc(C(=O)N(CCN)[C@@H](c2nc3c(oc4ccc(F)cc43)c(=O)n2Cc2cccc(F)c2)C(C)C)cc1 [Compound 187] | < 30
Cc1ccc(C(=O)N(CCCN)C(c2nc3c(C#N)c4ccccc4cc3c(=O)n2Cc2ccc(Cl)s2)C(C)C)cc1 (stereo not shown) [Compound 8] | < 30
Cc1ccc(C(=O)N(CCCN)C(c2nc3c(oc4cc(Cl)ccc43)c(=O)n2Cc2ccccc2)C(C)C)cc1 (stereo not shown) [Compound 108] | < 30
Cc1ccc(C(=O)N(CCN)C(c2nc3c(oc4ccc(F)cc43)c(=O)n2Cc2cccc(F)c2)C(C)C)cc1 (stereo not shown) [Compound 79] | < 30
CCCC(c1nc2c(oc3ccccc32)c(=O)n1Cc1ccccc1)N(CCN)C(=O)c1ccc(C)cc1 (stereo not shown) [Compound 51] | < 30
C#CCNC(=O)c1ccc(Cn2c(C(C(C)C)N(CCN)C(=O)c3ccc(C)cc3)nc3c(oc4ccc(F)cc43)c2=O)s1 (stereo not shown) [Compound 121] | < 30
Cc1ccc(C(=O)N(CCCN)C(c2nc3c(oc4ccc(C)cc43)c(=O)n2Cc2ccccc2)C(C)C)cc1 (stereo not shown) [Compound 40] | < 30
Cc1ccc(C(=O)N(NCCN)C(c2nc3c(oc4ccccc43)c(=O)n2Cc2ccccc2)C(C)C)cc1 (stereo not shown) [Compound 26] | < 30
Cc1ccc(C(=O)N(CCN)C(c2nc3c(oc4cc(F)ccc43)c(=O)n2Cc2ccc(Cl)s2)C(C)C)cc1 (stereo not shown) [Compound 110] | < 30
COC(=O)c1ccc(Cn2c(C(C(C)C)N(CCN)C(=O)c3ccc(C)cc3)nc3c(oc4ccc(F)cc43)c2=O)s1 (stereo not shown) [Compound 88] | < 30
Cc1ccc(C(=O)N(CCCN)C(c2nc3c(oc4ccc(F)cc43)c(=O)n2Cc2cc(Br)cs2)C(C)C)cc1 (stereo not shown) [Compound 73] | < 30
Cc1ccc(C(=O)N(CCN)[C@@H](c2nc3c(oc4ccc(F)cc43)c(=O)n2Cc2ccc(I)s2)C(C)C)cc1 [Compound 219] | < 30
CCC(c1nc2nc3cc(Cl)ccc3cc2c(=O)n1Cc1ccccc1)N(CCCN)C(=O)c1ccc(C)cc1 (stereo not shown) [Compound 12] | < 30
